Consider 1 compound from US9504652B2 (Druggability Technologies IP Holdco (Jersey) Ltd., priority 2010, dated 2016).

The nature of series [1]: Comparative dissolution test (wettability and redispersibility) in distillate water. Format: physicochemical. The following applies: 4.0 mg Aprepitant in 8.0 mL distillate water, stirred 10 minutes.
A short description of the next series: PAMPA permeability. Format: in vitro ADME. The following applies: for Papp: PAMPA. The text has this: The sample containing the reference compound was a suspension of crystals visible by the naked eye, while the other two samples were opalescent colloid solutions. The receiver compartment was phosphate buffered saline with 1% sodium lauryl sulphate and 5% DMSO.
A general note: In PAMPA a lipid-coated filter parts donor from acceptor wells.

The test system of another series is human liver microsomes. The following applies: cited from earlier work.
The conditions of series [2]: over 72 hours, single oral 300 mg dose of [14C]-Aprepitant; cited from earlier work.
The conditions of series [3]: cited from earlier work.

SMILES strings stand for the structures. Read-outs that look alike come from different tables or passages of the source.

For `C[C@@H](O[C@H]1OCCN(Cc2n[nH]c(=O)[nH]2)[C@H]1c1ccc(F)cc1)c1cc(C(F)(F)F)cc(C(F)(F)F)c1` [Aprepitant, 5-[[(2R,3S)-2-[(1R)-1-[3,5-bis(trifluoromethyl)phenyl]ethoxy]-3-(4-fluorophenyl)-4-morpholinyl]methyl]-1,2-dihydro-3H-1,2,4-triazol-3-one], the “wettability and redispersibility / dissolution” value in series [1] is “did not wet and did not dissolve”. In addition, in the series “PAMPA permeability” (FeSSIF/FaSSIF), the “ratio of PAMPA permeability for FeSSIF and FaSSIF” value came out at 10.7. Besides, the Papp – broadly, a coefficient for how fast a substance crosses the barrier – in the series “PAMPA permeability” (redispersed in FaSSIF) was 0.044 ×10⁻⁶ cm/s; in “PAMPA permeability” (redispersed in FeSSIF), 0.471 ×10⁻⁶ cm/s. In addition, in the series on human liver microsomes, the “CYP enzymes with no metabolism detected” value is “No metabolism by CYP2D6, CYP2C9, or CYP2E1 was detected”. Also, in the series with human liver microsomes, the “metabolizing CYP enzymes” value was “metabolized primarily by CYP3A4 with minor metabolism by CYP1A2 and CYP2C19”. In addition, the “share of the radioactivity in plasma accounted for by Aprepitant” value in series [2] is given as “approximately 24%”. Besides, the solubility result in series [3] (acetonitrile) is on record as “slightly soluble”; in series [3] (ethanol), “sparingly soluble”; in series [3] (isopropyl acetate), “sparingly soluble”; in series [3] (water), “practically insoluble”.
